Test: mn = molality of the nth substance listed, in mol/kg
Details: 101 kPa, Liquid

CCCCCC(=O)[O-].[Na+] [sodium hexanoate] + O
Details	mass density, m1 = 0.5 [kg/m3]	mass density, m1 = 1 [kg/m3]	mass density, m1 = 1.5 [kg/m3]	mass density, m1 = 2.177 [kg/m3]	viscosity, m1 = 0.5 [mPa·s]	viscosity, m1 = 1 [mPa·s]	viscosity, m1 = 1.5 [mPa·s]	viscosity, m1 = 2.177 [mPa·s]
298.15 K	1014.4	1029.41	1041.88	1054.22	1.212	1.607	2.102	3.187
308.15 K	1010.74	1024.96	1036.7	1048.72	0.956	1.24	1.601	2.402

Reference: the NIST ThermoML archive (doi:10.1021/je0501484)
